Laboratory results: ChEMBL document CHEMBL1157539, “Thousands of chemical starting points for antimalarial lead identification” (Nature, 2010)

System: Plasmodium falciparum
Assay: GSK_TCMDC: Inhibition of Plasmodium falciparum 3D7 in whole erythrocytes, using parasite LDH activity as an index of growth.
Type: functional, organism-based
Settings: Plasmodium falciparum, 3D7

SMILES	XC50 [nM]
COc1cc(-c2nc(-c3ccc(C(=O)c4ccc(F)cc4)cc3)c(-c3ccccc3)[nH]2)cc(OC)c1O	659
Clc1ccc(-c2cc(-c3csc(Nc4ccncc4)n3)on2)cc1	133
Nc1nc(N)c2c(ccc3c2ccn3C2CCCCC2)n1	123
Cc1cc(N(C)C)nc(Nc2ccc(NC(=O)c3c(F)cccc3F)cc2)n1	1380
CCOc1ccc(C(=O)Nc2cc(Cl)ccc2O)cc1Cl	705
CC(C)Cn1c(Sc2ccc(C#N)c([N+](=O)[O-])c2)nnc1-c1cccs1	1080
OC(Cn1ccnc1)(c1ccc(Cl)cc1Cl)C1CCCCC1 (stereo not given)	984
CC(Cc1ccc(C(=O)OC(c2ccccc2)c2ccccc2)cc1)NCC(O)c1ccccc1 (stereo not given)	178
CN(C)S(=O)(=O)c1cc(-c2ccc3nccc(-c4cccc(S(N)(=O)=O)c4)c3c2)cnc1N	251
CC1(C)CCNc2cc(NC(=O)c3ccc(-c4ncccc4C(F)(F)F)cc3)ccc21	903
CCOC(=O)C(C#N)NC(=O)C=Cc1ccccc1 (stereo not given)	804
CC(=O)Nc1ncc(C(=O)Nc2cccc(-c3ccc(-c4nc5cc(C(F)(F)F)ccc5[nH]4)cc3)c2)s1	590
O=C(C=Cc1ccc(Cl)c(Cl)c1)NCCCCCN1CCC(CCNC(=O)C(c2ccccc2)c2ccccc2)CC1	1010
CC(NC(C)(C)C)C(O)c1ccc(Cl)c(C(F)(F)F)c1 (stereo not given)	742
N#Cc1cccc(CNC(=O)c2cccc(Nc3ccnc4ccc(F)cc34)c2)c1	987
CCCCc1ccc(NC(=O)Nc2cccc(CCNCc3ccccc3)c2)cc1	881
COc1ccc(Nc2ncc3c(-c4cccc(NC(=O)c5ccccc5)c4)c[nH]c3n2)cc1OC	461
O=C1COc2ccccc2N1CCN1CCC(NCc2ccc(-c3cccs3)cc2)CC1	1430
COc1cc(NC(=O)c2cc([N+](=O)[O-])ccc2NC(=O)CNC2CCCCC2C)cc(OC)c1 (stereo not given)	1730
CCc1cn(CCc2ccccc2)c2ccc(C(=O)N[C@@H](Cc3ccccc3)[C@H](O)CNC(C)(C)CCCC(C)C)cc12	219
COc1cc(Nc2ncc3c(C)nc(-c4cccc(Nc5ccc(CN6CCS(=O)(=O)CC6)cc5)c4)n3n2)cc(OC)c1OC	865
CCCCN1C(=O)C2CC(=O)CC(C3CCCCC3)C2C1=O (stereo not given)	888
O=C(Nc1cccc(-c2csc(-c3nc4ccccc4[nH]3)c2)c1)c1cc(=O)c2ccccc2[nH]1	232
CN(C)CCOc1ccc(-c2cc(-c3ccncc3)c(-c3ccc(Cl)c(O)c3)[nH]2)cc1	224

SMILES	XC50 [nM]
O=C(c1cc(-c2cccs2)n[nH]1)N1CCN(S(=O)(=O)c2ccc(Br)cc2)CC1	357
O=C(Nc1ccccc1Br)N[C@@H]1CCN(c2ccnc3ccccc23)C1	935
Nc1ccc(-c2ccc3ccnc(N)c3c2)cn1	353
COc1ccc(-c2cccc(NC(=O)c3cccc(Cl)c3)c2)cc1CN1CCCC1	731
O=C(Nc1ccc2c(c1)OCO2)c1cc(-c2cccnc2)cnc1NCc1ccc2c(c1)OCO2	1190
O=C(Nc1cccc(-c2cccc(-c3nc4cc(C(F)(F)F)ccc4[nH]3)c2)c1)c1cccnc1	404
Cc1nc(-c2ccc(-c3ccc(NC(=O)Nc4ccc(I)c(OCCN(C)C)c4)cc3)c(C)c2)no1	372
Cc1cccc(-c2nn(-c3ccccc3)c3[nH]c(=O)c(CN4CCSCC4)cc23)c1	1010
FC(F)(F)c1ccc2[nH]c(-c3ccc(-c4ccc(CNCc5cnn(-c6ccccc6)n5)cc4)s3)nc2c1	456
CCc1cn2c3c(cc(C(=O)N[C@@H](Cc4ccccc4)[C@H](O)CNC4CCC4)cc13)N(C)S(=O)(=O)CC2	99
CCCCCCC(N)c1ccc(OCCCOc2ccc(C(N)CCCCCC)cc2)cc1 (stereo not given)	1140
Nc1nc(Nc2ccc(Cl)cc2)nc2ccccc12	732
Cc1ccccc1C1CCN(C2CCC(NC(=O)c3ccc(-c4ccccc4F)o3)CC2)CC1 (stereo not given)	1050
CCOc1ccc(C(=O)Nc2cc(Br)c3c(c2)CNCC3)cc1C#N	765
COc1ccccc1-c1nc2nc(N)nc(N)c2nc1-c1ccccc1OC	1250
COc1ccc(CNCc2ccccc2)cc1-c1ccc(S(=O)(=O)NCCN2CCCC2)c(F)c1	1140
CC(C)(C)Cn1cc(-c2ccc(C(=O)NCCc3ccc(S(C)(=O)=O)cc3)cc2)c(N)n1.CC(C)(C)Cn1ncc(-c2ccc(C(=O)NCCc3ccc(S(C)(=O)=O)cc3)cc2)c1N	647
c1cc(C2=NC3CCCCC3N2)ccc1OCCCOc1ccc(C2=NC3CCCCC3N2)cc1 (stereo not given)	731
Cc1ccccc1C1CCN(C2CCC(NC(=O)c3csc(-c4cccc(Cl)c4)n3)CC2)CC1 (stereo not given)	1150
COc1ccc2ncc(F)c(CCN3CCC(NCc4ccc5c(c4)CCO5)CC3)c2n1	677
CC(C)NCc1ccc(-c2ccc(CN3CCCC(c4ccccc4)C3)cc2)c(C(=O)NCC2CCCCC2)c1 (stereo not given)	722
CCCCCCN1CCCN(Cc2ccc(C(=O)Nc3ccc(F)c(F)c3)cc2)CC1	612
CC(C)(C)c1ccc2[nH]c(-c3ccc(C(=O)NCCCc4ccccc4)cc3)nc2c1	801
CC(C)NCc1ccc(-c2cccc(NC(=O)c3cccc(C#N)c3)c2)cc1	406

SMILES	XC50 [nM]
Cc1cc(N[C@@H](Cc2ccccc2)C(=O)NCc2cccc(F)c2)nc(NCCc2cccnc2)n1	1340
CC(C(=O)N1CCCC1)N1CCN(S(=O)(=O)c2ccc(C(C)(C)C)cc2)CC1 (stereo not given)	636
CN1C(=O)[C@H](NC(=O)[C@@H](Cc2ccccc2)NC(=S)Nc2ccccc2)N=C(c2ccccc2)c2ccccc21	855
O=C(Nc1cccc(-c2nc3ccccc3s2)c1)c1ccccc1[N+](=O)[O-]	767
CC(C)Cn1ncc2c3c(N)nc(N)nc3ccc21	159
COc1ccc2cc(-c3nc(-c4c(Cl)cccc4Cl)[nH]c3-c3ccnc(NCCCN4CCN(C)CC4)c3)ccc2c1	708
O=C(N[C@@H](Cc1ccccc1)CN1CCC(Oc2ccc(F)cc2)CC1)c1ccc(OCCCN2CCCCC2)cc1	885
CC(C)c1ccc(NS(=O)(=O)c2cccc(C(=O)NC3CCN(CC4CCCCC4)CC3)c2)cc1	1300
CCCNCc1ccc(-c2ccc(CN(C(=O)c3nn(-c4ccccc4)nc3C)C3CCOCC3)cc2)nc1	144
COc1ccc(CC(Cc2ccc(OC)cc2)NCC(O)c2cccc(Cl)c2)cc1 (stereo not given)	155
CCc1cccc2sc(N3CCN(C(=O)c4ccc([N+](=O)[O-])o4)CC3)nc12	773
Cn1nc(C(F)(F)F)c(-c2ccc(F)cc2)c1NC(=O)Nc1ccc(F)cc1F	765
Cc1cc2nc(-c3ccc(C(=O)NCc4cccc(F)c4)cc3)[nH]c2cc1C	962
COc1cccc(-c2c(C#N)c(N)nc3c2c(C)nn3-c2ccccc2)c1O	282
N=C(N)c1ccc(C(=O)Nc2cccc(C(=N)N)c2)cc1	1040
CCc1cn2c3c(cc(C(=O)N[C@@H](Cc4ccccc4)[C@H](O)CNC4CCCC4)cc13)N(C)S(=O)(=O)CC2	46.9
CC[C@H](C)CNC(=O)c1ccnc(-c2cccc(CN(C)C3CCN(C)CC3)c2)c1	898
COc1ccc(C2C(C(=O)OC3CCCC3)=C(C)NC3=C2C(=O)CCC3)cc1Br (stereo not given)	593
c1cncc(CCNCc2ccc(-c3ccc(-c4nc5ccccc5[nH]4)s3)cc2)c1	213
COc1ccccc1C1CCN(C2CCC(NC(=O)/C=C/c3cccc(C(F)(F)F)c3)CC2)CC1 (stereo not given)	806
CC1(C)OC[C@]2(C)[C@@H](CC[C@]3(C)C4=CC(=O)CCC4CC[C@@H]23)O1 (stereo not given in full)	282
COc1cc(-c2nc(C(C)(C)CN)[nH]c2-c2ccncc2)ccc1Br	769
